Measured values reported in US10294202B2, “Pyrrolidinones as herbicides” (FMC Corporation, priority 2013, dated 2019).

Key:
rice = experiment: Test B flooded paddy test; format: in vivo, Oryza sativa; details: 250 g ai/ha, Flood; scale of 0 to 100 where 0 is no effect and 100 is complete control
Method in brief: (§1)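 Scored visually 0–100 (0 no effect, 100 complete control) versus controls after 13 to 15 greenhouse days. Treatment: compound added to paddy water kept 3 cm above soil, on 2-leaf-stage plants.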

ducksalad = experiment: Test B flooded paddy test; format: in vivo, Heteranthera limosa; details: 250 g ai/ha, Flood; scale of 0 to 100 where 0 is no effect and 100 is complete control
Method in brief: as §1

wheat (winter wheat) = experiment: Test C pre-/postemergence herbicide test; format: in vivo, Triticum aestivum
Method in brief: (§2)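 Test compounds, formulated in a surfactant-containing non-phytotoxic solvent blend, are applied to seeded loam/sand soil (preemergence) and to young plants at the 1- to 4-leaf stage in peat-based medium (postemergence). Plants stay 13 to 15 days under greenhouse conditions, then are scored visually relative to controls, 0 = no effect, 100 = complete control.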

corn = experiment: Test C pre-/postemergence herbicide test; format: in vivo, Zea mays
Method in brief: as §2

morningglory = experiment: Test C pre-/postemergence herbicide test; format: in vivo, Ipomoea coccinea
Method in brief: as §2

pigweed = experiment: Test C pre-/postemergence herbicide test; format: in vivo, Amaranthus retroflexus
Method in brief: as §2

soybean = experiment: Test C pre-/postemergence herbicide test; format: in vivo, Glycine max
Method in brief: as §2

oat, wild = experiment: Test C pre-/postemergence herbicide test; format: in vivo, Avena fatua
Method in brief: as §2

velvetleaf = experiment: Test C pre-/postemergence herbicide test; format: in vivo, Abutilon theophrasti
Method in brief: as §2

[1] = Preemergence, 31 g ai/ha, scale 0 to 100, 0 is no effect and 100 is complete control
[2] = Preemergence, 62 g ai/ha, scale 0 to 100
[3] = Preemergence, 125 g ai/ha, scale 0 to 100 (0 no effect, 100 complete control)
[4] = Postemergence, 31 g ai/ha, scale 0 (no effect) to 100 (complete control)
[5] = Postemergence, 62 g ai/ha, scale 0 to 100 (0 no effect, 100 complete control)
[6] = Postemergence, 125 g ai/ha, scale 0 to 100 (0 no effect, 100 complete control)
[7] = Postemergence, 250 g ai/ha, scale 0 to 100 (0 no effect, 100 complete control)

O=C1NCC(c2cccc(OC(F)(F)F)c2)C1C(=O)Nc1ccccc1F (stereo not shown) [Compound 69]
Plant response rating, Rice (rice): 30
Plant response rating, Ducksalad (ducksalad): 85
Wheat plant response rating (wheat (winter wheat); [1]): 0
Plant response rating, Wheat (wheat (winter wheat); [2]): 0
Plant response rating, Wheat (wheat (winter wheat); [3]): 5
Plant response rating (scale of 0 to 100), Wheat (wheat (winter wheat); Preemergence, 250 g ai/ha): 5
Corn plant response rating (corn; [1]): 15
Plant response rating, Corn (corn; [2]): 15
Plant response rating, Corn (corn; [3]): 25
Plant response rating (scale of 0 to 100), Corn (corn; Preemergence, 250 g ai/ha): 30
Morningglory plant response rating (morningglory; [1]): 20
Plant response rating, Morningglory (morningglory; [3]): 25
Plant response rating (scale of 0 to 100), Morningglory (morningglory; Preemergence, 250 g ai/ha): 25
Pigweed plant response rating (pigweed; [1]): 15
Plant response rating, Pigweed (pigweed; [2]): 25
Plant response rating, Pigweed (pigweed; [3]): 25
Plant response rating (scale of 0 to 100), Pigweed (pigweed; Preemergence, 250 g ai/ha): 25
Soybean plant response rating (soybean; [1]): 0
Plant response rating, Soybean (soybean; [2]): 0
Plant response rating, Soybean (soybean; [3]): 0
Plant response rating (scale of 0 to 100), Soybean (soybean; Preemergence, 250 g ai/ha): 0
Plant response rating, Oat, Wild (oat, wild; [2]): 0
Plant response rating, Oat, Wild (oat, wild; [3]): 5
Plant response rating (scale of 0 to 100), Oat, Wild (oat, wild; Preemergence, 250 g ai/ha): 5
Velvetleaf plant response rating (velvetleaf; [1]): 30
Plant response rating, Velvetleaf (velvetleaf; [2]): 30
Plant response rating, Velvetleaf (velvetleaf; [3]): 30
Plant response rating (scale of 0 to 100), Velvetleaf (velvetleaf; Preemergence, 250 g ai/ha): 30

O=C1NCC(c2cc(F)c(F)cc2F)C1C(=O)Nc1cccc(F)c1F (stereo not shown) [Compound 50]
Plant response rating, Rice (rice): 0
Plant response rating, Ducksalad (ducksalad): 90
Plant response rating, Wheat (wheat (winter wheat); [4]): 0
Plant response rating, Wheat (wheat (winter wheat); [5]): 0
Plant response rating, Wheat (wheat (winter wheat); [6]): 0
Plant response rating, Wheat (wheat (winter wheat); [7]): 0
Plant response rating, Corn (corn; [4]): 0
Plant response rating, Corn (corn; [5]): 0
Plant response rating, Corn (corn; [6]): 5
Plant response rating, Corn (corn; [7]): 5
Plant response rating, Morningglory (morningglory; [4]): 0
Plant response rating, Morningglory (morningglory; [5]): 0
Plant response rating, Morningglory (morningglory; [6]): 10
Plant response rating, Morningglory (morningglory; [7]): 10
Plant response rating, Pigweed (pigweed; [4]): 10
Plant response rating, Pigweed (pigweed; [5]): 10
Plant response rating, Pigweed (pigweed; [6]): 20
Plant response rating, Pigweed (pigweed; [7]): 20
Plant response rating, Soybean (soybean; [4]): 10
Plant response rating, Soybean (soybean; [5]): 15
Plant response rating, Soybean (soybean; [6]): 15
Plant response rating, Soybean (soybean; [7]): 20
Plant response rating, Oat, Wild (oat, wild; [4]): 0
Plant response rating, Oat, Wild (oat, wild; [5]): 0
Plant response rating, Oat, Wild (oat, wild; [6]): 0
Plant response rating, Oat, Wild (oat, wild; [7]): 0
Plant response rating, Velvetleaf (velvetleaf; [4]): 0
Plant response rating, Velvetleaf (velvetleaf; [5]): 15
Plant response rating, Velvetleaf (velvetleaf; [6]): 25
Plant response rating, Velvetleaf (velvetleaf; [7]): 45
